Test results reported in patent US12410208B2, “(2-acetamidyl)thio-beta-D-galactopyranoside derivatives” (Idorsia Pharmaceuticals Ltd, priority 2020, dated 2025).
Like-named read-outs stand apart in the source and are kept apart here.

Assays:
[1] = biological target: biotinylated human Gal-3 (hGal-3) (Homo sapiens, UniProt P17931); experiment: Competitive binding assay: biotinylated hGal-3 binding to microplate-adsorbed asialofetuin (ASF), spectrophotometric
In short: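 Competitive binding of biotinylated hGal-3 to plate-adsorbed asialofetuin was measured with serially diluted compounds over 3 h at 4° C. Bound protein was detected with streptavidin-peroxidase and ABTS substrate by absorbance. IC50 values are means of several measurements.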

human Gal-1 (hGal-1) = human Gal-1 (hGal-1) (Homo sapiens, UniProt P09382); experiment: Competitive binding assay: biotinylated hGal-1 binding to microplate-adsorbed asialofetuin (ASF), spectrophotometric; details: hGal-1 binding to asialofetuin; Table 15; R and S epimers of selected Examples also listed; read-out: IC50 (Galectin-1 inhibition)
In short: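 Biotinylated hGal-1 (300-1000 ng/mL) incubated with compound on asialofetuin-coated plates 3 hours at 4 °C, washed, then streptavidin-peroxidase (80 ng/mL) 1 hour at 4 °C. ABTS substrate read spectrophotometrically; IC50 reported as mean of several measurements.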

[2] = Table 12, hGal-3, read-out: IC50 (Gal-3 inhibition)
[3] = Gal-3 inhibition, Table 5, read-out: IC50
[4] = Table 9, hGal-3, read-out: IC50 (Gal-3 inhibition)
[5] = Gal-3 inhibition, Table 4, read-out: IC50

human Gal-1 (hGal-1), sequence (P09382 whole entry): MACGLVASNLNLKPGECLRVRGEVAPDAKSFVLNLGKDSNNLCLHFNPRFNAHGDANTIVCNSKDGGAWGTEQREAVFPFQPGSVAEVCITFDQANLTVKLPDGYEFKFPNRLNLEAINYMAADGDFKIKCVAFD
biotinylated human Gal-3 (hGal-3), sequence (P17931 whole entry): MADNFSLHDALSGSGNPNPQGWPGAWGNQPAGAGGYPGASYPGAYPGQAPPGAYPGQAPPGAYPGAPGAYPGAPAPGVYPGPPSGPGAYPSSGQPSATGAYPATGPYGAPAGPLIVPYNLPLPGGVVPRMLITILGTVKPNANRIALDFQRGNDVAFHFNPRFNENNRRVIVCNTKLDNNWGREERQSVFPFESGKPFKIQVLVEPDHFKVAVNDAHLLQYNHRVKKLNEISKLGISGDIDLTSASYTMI

IC50 (human Gal-1 (hGal-1)) | Compound | also measured
110 nM | CO[C@@H]1[C@@H](n2cc(-c3cc(F)c(F)c(F)c3)nn2)[C@@H](O)[C@@H](CO)O[C@H]1SC(C(=O)N(C)C(C)C)C1(O)CCC(F)(F)CC1 (stereo partly drawn) [Example 2.44.242.I., 2-(4,4-Difluoro-1-hydroxycyclohexyl)-2-(((2S,3R,4S,5R,6R)-5-hydroxy-6-(hydroxymethyl)-3-methoxy-4-(4-(3,4,5-trifluorophenyl)-1H-1,2,3-triazol-1-yl)tetrahydro-2H-pyran-2-yl)thio)-N-isopropyl-N-methylacetamide] | IC50 [1, 2]: 80 nM
5130 nM | O=C([C@H](S[C@@H]1O[C@H](CO)[C@H](O)[C@H](n2cc(-c3cc(F)c(F)c(F)c3)nn2)[C@H]1O)C1(O)CCC(F)(F)CC1)N1CC(F)(F)C1 [Example 2.44.227R., (R)-2-(4,4-Difluoro-1-hydroxycyclohexyl)-1-(3,3-difluoroazetidin-1-yl)-2-(((2S,3R,4S,5R,6R)-3,5-dihydroxy-6-(hydroxymethyl)-4-(4-(3,4,5-trifluorophenyl)-1H-1,2,3-triazol-1-yl)tetrahydro-2H-pyran-2-yl)thio)ethan-1-one] | IC50 [1, 3]: 1050 nM
190 nM | CO[C@@H]1[C@@H](n2cc(-c3cc(F)c(F)c(F)c3)nn2)[C@@H](O)[C@@H](CO)O[C@H]1SC(C(=O)N1CCC(F)(F)CC1)C1(O)CCC(C)(C)CC1 (stereo partly drawn) [Example 2.68.226.I., 1-(4,4-Difluoropiperidin-1-yl)-2-(1-hydroxy-4,4-dimethylcyclohexyl)-2-(((2S,3R,4S,5R,6R)-5-hydroxy-6-(hydroxymethyl)-3-methoxy-4-(4-(3,4,5-trifluorophenyl)-1H-1,2,3-triazol-1-yl)tetrahydro-2H-pyran-2-yl)thio)ethan-1-one] | IC50 ([1]; Table 13, hGal-3, read-out: IC50 (Gal-3 inhibition)): 100 nM
180 nM | N-Cyclopropyl-4-(2-(ethyl(methyl)amino)-1-(((2S,3R,4S,5R,6R)-5-hydroxy-6-(hydroxymethyl)-3-methoxy-4-(4-(3,4,5-trifluorophenyl)-1H-1,2,3-triazol-1-yl)tetrahydro-2H-pyran-2-yl)thio)-2-oxoethyl)-4-hydroxypiperidine-1-carboxamide [Example 2.49.226.I.] | IC50 ([1]; Table 8, hGal-3, read-out: IC50 (Gal-3 inhibition)): 100 nM
100 nM | CN(C(=O)[C@@H](S[C@@H]1O[C@H](CO)[C@H](O)[C@H](n2cc(-c3cc(F)c(F)c(F)c3)nn2)[C@H]1O)C1(O)CCOCC1)c1cccnc1 [Example 2.41.234S.] | IC50 [1, 4]: 100 nM
11500 nM | O=C([C@H](S[C@@H]1O[C@H](CO)[C@H](O)[C@H](n2cc(-c3cc(F)c(F)c(F)c3)nn2)[C@H]1O)C1(O)CCC1)N1CCCCC1 [Example 2.34.208R., (R)-2-(((2S,3R,4S,5R,6R)-3,5-Dihydroxy-6-(hydroxymethyl)-4-(4-(3,4,5-trifluorophenyl)-1H-1,2,3-triazol-1-yl)tetrahydro-2H-pyran-2-yl)thio)-2-(1-hydroxycyclobutyl)-1-(piperidin-1-yl)ethan-1-one] | IC50 [1, 3]: 3240 nM
50 nM | CN(C(=O)[C@@H](S[C@@H]1O[C@H](CO)[C@H](O)[C@H](n2cc(-c3cc(F)c(F)c(F)c3)nn2)[C@H]1O)C1(O)CCOCC1)c1ccccc1 [Example 2.41.231S.] | IC50 [1, 4]: 70 nM
230 nM | CN1CCC(O)(C(S[C@@H]2O[C@H](CO)[C@H](O)[C@H](n3cc(-c4cc(F)c(F)c(F)c4)nn3)[C@H]2O)C(=O)N2CCc3ccccc32)CC1 (stereo partly drawn) [Example 2.40.209., 2-(((2S,3R,4S,5R,6R)-3,5-Dihydroxy-6-(hydroxymethyl)-4-(4-(3,4,5-trifluorophenyl)-1H-1,2,3-triazol-1-yl)tetrahydro-2H-pyran-2-yl)thio)-2-(4-hydroxy-1-methylpiperidin-4-yl)-1-(indolin-1-yl)ethan-1-one] | IC50 [1, 5]: 120 nM
1920 nM | CN(C)C(=O)C(S[C@@H]1O[C@H](CO)[C@H](O)[C@H](n2cc(-c3cc(F)c(F)c(F)c3)nn2)[C@H]1O)C(C)(C)O (stereo partly drawn) [Example 2.31.201., 2-(((2S,3R,4S,5R,6R)-3,5-Dihydroxy-6-(hydroxymethyl)-4-(4-(3,4,5-trifluorophenyl)-1H-1,2,3-triazol-1-yl)tetrahydro-2H-pyran-2-yl)thio)-3-hydroxy-N,N,3-trimethylbutanamide] | IC50 ([1]; Gal-3 inhibition, Table 3, read-out: IC50): 270 nM
220 nM | CN(CCC1CC1)C(=O)C(S[C@@H]1O[C@H](CO)[C@H](O)[C@H](n2cc(-c3cc(F)c(F)c(F)c3)nn2)[C@H]1O)C1(O)CCOCC1 (stereo partly drawn) [Example 2.41.217., N-(2-Cyclopropylethyl)-2-(((2S,3R,4S,5R,6R)-3,5-dihydroxy-6-(hydroxymethyl)-4-(4-(3,4,5-trifluorophenyl)-1H-1,2,3-triazol-1-yl)tetrahydro-2H-pyran-2-yl)thio)-2-(4-hydroxytetrahydro-2H-pyran-4-yl)-N-methylacetamide] | IC50 [1, 5]: 60 nM
30 nM | CO[C@@H]1[C@@H](n2cc(-c3cc(F)c(F)c(F)c3)nn2)[C@@H](O)[C@@H](CO)O[C@H]1SC(C(=O)N(C)C12CC(C1)C2)C1(O)CCC(F)(F)CC1 (stereo partly drawn) [Example 2.44.247.I., N-(Bicyclo[1.1.1]pentan-1-yl)-2-(4,4-difluoro-1-hydroxycyclohexyl)-2-(((2S,3R,4S,5R,6R)-5-hydroxy-6-(hydroxymethyl)-3-methoxy-4-(4-(3,4,5-trifluorophenyl)-1H-1,2,3-triazol-1-yl)tetrahydro-2H-pyran-2-yl)thio)-N-methylacetamide] | IC50 [1, 2]: 50 nM
1680 nM | CN(Cc1cn(C)cn1)C(=O)C(S[C@@H]1O[C@H](CO)[C@H](O)[C@H](n2cc(-c3cc(F)c(F)c(F)c3)nn2)[C@H]1O)C(C)(C)O (stereo partly drawn) [Example 2.31.215., 2-(((2S,3R,4S,5R,6R)-3,5-Dihydroxy-6-(hydroxymethyl)-4-(4-(3,4,5-trifluorophenyl)-1H-1,2,3-triazol-1-yl)tetrahydro-2H-pyran-2-yl)thio)-3-hydroxy-N,3-dimethyl-N-((1-methyl-1H-imidazol-4-yl)methyl)butanamide] | IC50 ([1]; Table 6, hGal-3, read-out: IC50 (Gal-3 inhibition)): 190 nM
160 nM | 2-(((2S,3R,4S,5R,6R)-3,5-Dihydroxy-6-(hydroxymethyl)-4-(4-(3,4,5-trifluorophenyl)-1H-1,2,3-triazol-1-yl)tetrahydro-2H-pyran-2-yl)thio)-N-ethyl-2-(4-hydroxy-1-methylpiperidin-4-yl)-N-methylacetamide [Example 2.40.203.] | IC50 [1, 5]: 80 nM
100 nM | CCO[C@@H]1[C@@H](n2cc(-c3cc(F)c(F)c(F)c3)nn2)[C@@H](O)[C@@H](CO)O[C@H]1SC(C(=O)N1CCC(F)(F)CC1)C1(O)CCC(F)(F)CC1 (stereo partly drawn) [Example 2.44.226.II., 2-(4,4-Difluoro-1-hydroxycyclohexyl)-1-(4,4-difluoropiperidin-1-yl)-2-(((2S,3R,4S,5R,6R)-3-ethoxy-5-hydroxy-6-(hydroxymethyl)-4-(4-(3,4,5-trifluorophenyl)-1H-1,2,3-triazol-1-yl)tetrahydro-2H-pyran-2-yl)thio)ethan-1-one] | IC50 ([1]; Gal-3 inhibition, Table 14, read-out: IC50): 100 nM
1130 nM | CCN(C)C(=O)C(S[C@@H]1O[C@H](CO)[C@H](O)[C@H](n2cc(-c3cc(F)c(F)c(F)c3)nn2)[C@H]1O)C1(O)CCCC1 (stereo partly drawn) [Example 2.38.203., 2-(((2S,3R,4S,5R,6R)-3,5-Dihydroxy-6-(hydroxymethyl)-4-(4-(3,4,5-trifluorophenyl)-1H-1,2,3-triazol-1-yl)tetrahydro-2H-pyran-2-yl)thio)-N-ethyl-2-(1-hydroxycyclopentyl)-N-methylacetamide] | IC50 [1, 3]: 430 nM
